Reference: patent US20260325533A1, “CDK INHIBITOR COMPOUNDS” (ALEKSIA THERAPEUTICS, INC., priority 2023, published 2026)
Like-named read-outs stand apart in the source and are kept apart here.

What was measured:
Format in all cases: biochemical
CDK1/CCNB1 = CDK1/CCNB1 (Homo sapiens, UniProt P06493); experiment: CDK1 homogeneous time-resolved fluorescence (HTRF) kinase assay
How it was run: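 Kinase activity is measured as Lance signal (665 nm, or 665/615 nm ratio) from europium-labelled anti-phospho-Thr37/46 antibody binding ULight-4E-BP1 peptide. Reactions contain 0.5 nM enzyme, 1 mM ATP, 1% DMSO and run 60 min at 23 °C before EDTA quench.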

CDK2/CCNE1 = CDK2/CCNE1 (Homo sapiens, UniProt P24941); experiment: CDK2 homogeneous time-resolved fluorescence (HTRF) kinase assay
How it was run: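 TR-FRET read-out (665 nm, or 665/615 ratio) of Eu-antibody detection of phospho-4E-BP1 (Thr37/46) ULight peptide. Enzyme 3 nM, ATP 1 mM, peptide 50 nM, 1% DMSO; 60 min reaction at 23 °C after 20 min compound preincubation. IC50 from 11-point half-log titrations, top typically 10 μM.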

CDK4/CCND3 = CDK4/CCND3 (Homo sapiens, UniProt P11802); experiment: CDK4 homogeneous time-resolved fluorescence (HTRF) kinase assay
Chain of CDK4/CCND3 (P11802 whole entry): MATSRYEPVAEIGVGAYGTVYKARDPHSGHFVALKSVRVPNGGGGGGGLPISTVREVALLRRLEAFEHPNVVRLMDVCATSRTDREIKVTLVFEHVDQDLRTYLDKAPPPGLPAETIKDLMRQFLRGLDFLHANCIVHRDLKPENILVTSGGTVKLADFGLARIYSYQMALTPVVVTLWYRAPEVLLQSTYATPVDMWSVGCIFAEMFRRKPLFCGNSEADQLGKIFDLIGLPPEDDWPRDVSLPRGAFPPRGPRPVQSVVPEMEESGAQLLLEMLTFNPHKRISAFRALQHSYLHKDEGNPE
Chain of CDK4/CCND3 (P30281 whole entry partner): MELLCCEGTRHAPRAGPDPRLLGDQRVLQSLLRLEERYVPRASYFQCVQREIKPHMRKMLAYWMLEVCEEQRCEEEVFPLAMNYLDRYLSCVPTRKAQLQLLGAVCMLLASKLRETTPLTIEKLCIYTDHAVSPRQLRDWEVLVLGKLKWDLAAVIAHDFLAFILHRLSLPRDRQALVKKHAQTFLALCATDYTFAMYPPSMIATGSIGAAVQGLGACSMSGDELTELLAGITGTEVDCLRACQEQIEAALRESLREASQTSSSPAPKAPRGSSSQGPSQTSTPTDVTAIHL
How it was run: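 HTRF kinase assay, CDK4/CCND3 1.5 nM, ATP 1 mM, ULight-4E-BP1 peptide 50 nM, 23 °C, 60 min reaction after 20 min preincubation. Eu-anti-pThr37/46 antibody detection. 11-pt half-log curves from 10 μM → IC50.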

CDK6/CCND1 = CDK6/CCND1 (Homo sapiens, UniProt Q00534); experiment: CDK6 homogeneous time-resolved fluorescence (HTRF) kinase assay
Chain of CDK6/CCND1 (Q00534 whole entry): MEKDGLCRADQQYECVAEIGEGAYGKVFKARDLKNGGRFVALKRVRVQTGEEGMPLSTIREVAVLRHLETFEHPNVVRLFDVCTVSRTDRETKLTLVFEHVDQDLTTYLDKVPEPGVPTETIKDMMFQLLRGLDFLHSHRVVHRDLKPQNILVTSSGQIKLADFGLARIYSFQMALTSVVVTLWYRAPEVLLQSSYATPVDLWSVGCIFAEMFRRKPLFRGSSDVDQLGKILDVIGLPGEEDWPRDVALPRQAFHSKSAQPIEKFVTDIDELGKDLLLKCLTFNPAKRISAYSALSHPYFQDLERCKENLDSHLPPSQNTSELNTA
Chain of CDK6/CCND1 (P24385 whole entry partner): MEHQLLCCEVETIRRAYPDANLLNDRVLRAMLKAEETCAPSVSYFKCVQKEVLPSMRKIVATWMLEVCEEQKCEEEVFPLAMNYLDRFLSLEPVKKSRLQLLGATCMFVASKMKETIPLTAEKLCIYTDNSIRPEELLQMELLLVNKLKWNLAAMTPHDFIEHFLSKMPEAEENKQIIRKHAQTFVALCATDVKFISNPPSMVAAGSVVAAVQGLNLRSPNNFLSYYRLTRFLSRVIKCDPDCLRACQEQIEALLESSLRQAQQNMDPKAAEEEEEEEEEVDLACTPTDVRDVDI
How it was run: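 Recombinant CDK6/CCND1 (1 nM final) was preincubated with compound for 20 min at 23 °C in HEPES buffer with MgCl2, EGTA, DTT and Tween 20. Kinase reaction then ran 60 min at 23 °C with 1 mM ATP and 50 nM ULight-4E-BP1 (Thr37/46) peptide, and was stopped with EDTA.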

[1] = CDK1/CCNB, x = IC50 >250 nM, read-out: CDK1/CCNB IC50 (>250 nM column)
[2] = CDK2/CCNE, x = IC50 25-250 nM, read-out: CDK2/CCNE IC50 (25-250 nM)
[3] = CDK4/CCND, x = IC50 >250 nM, read-out: CDK4/CCND IC50 (>250 nM column)
[4] = CDK6/CCND, x = IC50 >250 nM, read-out: CDK6/CCND IC50 (>250 nM column)
[5] = >250 nM, CDK1/CCNB, read-out: CDK1/CCNB IC50 >250 nM
[6] = <25 nM, CDK2/CCNE, read-out: CDK2/CCNE IC50, <25 nM
[7] = >250 nM, CDK4/CCND, read-out: CDK4/CCND IC50, >250 nM
[8] = >250 nM, CDK6/CCND, 1 mM ATP, read-out: CDK6/CCND IC50, >250 nM
[9] = 25-250 nM, CDK2/CCNE, read-out: CDK2/CCNE IC50, 25-250 nM
[10] = CDK2/CCNE, x = IC50 <25 nM, read-out: CDK2/CCNE IC50 (<25 nM)
[11] = CDK1/CCNB, >250 nM marked x, read-out: CDK1/CCNB IC50 >250 nM
[12] = CDK6/CCND, >250 nM marked x, read-out: CDK6/CCND IC50 >250 nM
[13] = CDK1/CCNB, x = IC50 25-250 nM, read-out: CDK1/CCNB IC50 (25-250 nM)

Chain of CDK1/CCNB1 (P06493 whole entry): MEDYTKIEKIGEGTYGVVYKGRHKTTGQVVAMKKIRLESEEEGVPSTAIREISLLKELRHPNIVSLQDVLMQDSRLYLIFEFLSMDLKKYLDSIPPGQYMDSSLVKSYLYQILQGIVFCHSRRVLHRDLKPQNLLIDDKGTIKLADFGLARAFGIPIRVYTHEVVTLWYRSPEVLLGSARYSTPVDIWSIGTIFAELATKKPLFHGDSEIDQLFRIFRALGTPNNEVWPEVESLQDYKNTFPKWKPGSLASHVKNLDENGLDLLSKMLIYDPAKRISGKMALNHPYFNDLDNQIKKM
Chain of CDK1/CCNB1 (P14635 whole entry partner): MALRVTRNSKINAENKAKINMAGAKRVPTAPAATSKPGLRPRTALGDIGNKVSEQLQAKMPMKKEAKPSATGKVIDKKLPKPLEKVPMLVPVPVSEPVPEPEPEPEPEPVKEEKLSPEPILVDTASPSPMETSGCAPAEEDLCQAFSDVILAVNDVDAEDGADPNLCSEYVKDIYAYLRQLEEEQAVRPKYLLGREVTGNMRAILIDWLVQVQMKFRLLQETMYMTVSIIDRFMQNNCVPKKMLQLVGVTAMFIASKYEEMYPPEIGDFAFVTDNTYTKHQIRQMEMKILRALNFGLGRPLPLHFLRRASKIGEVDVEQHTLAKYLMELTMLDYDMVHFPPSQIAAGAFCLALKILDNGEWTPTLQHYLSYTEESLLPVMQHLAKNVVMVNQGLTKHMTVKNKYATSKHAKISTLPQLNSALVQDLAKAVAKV

SMILES: CC(C)S(=N)(=O)c1ccc(Nc2cc3c(C#Cc4cccnc4N)nccc3cn2)cc1 (single isomer, unassigned) [Ex 402, (4-((5-((2-aminopyridin-3-yl)ethynyl)-2,6-naphthyridin-3-yl)amino)phenyl)(imino)(isopropyl)-l6-sulfanone]
- IC50 (CDK1/CCNB1; [1]): > 250 nM
- IC50 (CDK2/CCNE1; [2]): 25 to 250 nM
- IC50 (CDK4/CCND3; [3]): > 250 nM
- IC50 (CDK6/CCND1; [4]): > 250 nM

SMILES: Cc1cnc(NS(=O)(=O)c2ccc(Nc3cc4c(-c5ccc6c(cnn6CC(O)(C(F)(F)F)C(F)(F)F)c5C)nccc4cn3)cc2)nc1N1CCOCC1 [Ex 706, 4-((5-(4-methyl-1-(3,3,3-trifluoro-2-hydroxy-2-(trifluoromethyl)propyl)-1H-indazol-5-yl)-2,6-naphthyridin-3-yl)amino)-N-(5-methyl-4-morpholinopyrimidin-2-yl)benzenesulfonamide]
- IC50 (CDK1/CCNB1; [5]): > 250 nM
- IC50 (CDK2/CCNE1; [6]): < 25 nM
- IC50 (CDK4/CCND3; [7]): > 250 nM
- IC50 (CDK6/CCND1; [8]): > 250 nM

SMILES: CC#Cc1nccc2cnc(Nc3ccc(S(=O)(=O)Nc4nccc(OC)n4)cc3)cc12 [Ex 879, N-(4-methoxypyrimidin-2-yl)-4-((5-(prop-1-yn-1-yl)-2,6-naphthyridin-3-yl)amino)benzenesulfonamide]
- IC50 (CDK1/CCNB1; [5]): > 250 nM
- IC50 (CDK2/CCNE1; [9]): 25 to 250 nM
- IC50 (CDK4/CCND3; [7]): > 250 nM
- IC50 (CDK6/CCND1; [8]): > 250 nM

SMILES: CCC1(CC)C(=O)Nc2cc(C#Cc3nccc4cnc(Nc5ccc(S(=O)(=O)CC)cc5OC)cc34)ccc21 [Ex 371, 3,3-diethyl-6-((7-((4-(ethylsulfonyl)-2-methoxyphenyl)amino)-2,6-naphthyridin-1-yl)ethynyl)indolin-2-one]
- IC50 (CDK1/CCNB1; [1]): > 250 nM
- IC50 (CDK2/CCNE1; [10]): < 25 nM
- IC50 (CDK4/CCND3; [3]): > 250 nM
- IC50 (CDK6/CCND1; [4]): > 250 nM

SMILES: CS(=O)(=O)c1ccc(Nc2cc3c(N4CCC(C#N)CC4)c(C#N)cnc3cn2)cc1 [Example 953, 4-(4-cyanopiperidin-1-yl)-6-((4-(methylsulfonyl)phenyl)amino)-1,7-naphthyridine-3-carbonitrile]
- IC50 (CDK1/CCNB1; 0.5 nM CDK1/CCNB1, 1 mM ATP, read-out: CDK1/CCNB IC50 >250 nM): > 250 nM
- IC50 (CDK2/CCNE1; 3 nM CDK2/CCNE1, 1 mM ATP, read-out: CDK2/CCNE IC50 >250 nM): > 250 nM
- IC50 (CDK4/CCND3; 1.5 nM CDK4/CCND3, 1 mM ATP, read-out: CDK4/CCND IC50 >250 nM): > 250 nM
- IC50 (CDK6/CCND1; 1 nM CDK6/CCND1, 1 mM ATP, read-out: CDK6/CCND IC50 >250 nM): > 250 nM

SMILES: Cc1ccc(NS(=O)(=O)c2ccc(Nc3cc4c(-c5ccc6c(cnn6CC(C)(C)O)c5C)nccc4cn3)cc2)nn1 [Ex 800, 4-((5-(1-(2-hydroxy-2-methylpropyl)-4-methyl-1H-indazol-5-yl)-2,6-naphthyridin-3-yl)amino)-N-(6-methylpyridazin-3-yl)benzenesulfonamide]
- IC50 (CDK1/CCNB1; 25-250 nM, CDK1/CCNB, read-out: CDK1/CCNB IC50, 25-250 nM): 25 to 250 nM
- IC50 (CDK2/CCNE1; [6]): < 25 nM
- IC50 (CDK4/CCND3; 25-250 nM, CDK4/CCND, read-out: CDK4/CCND IC50, 25-250 nM): 25 to 250 nM
- IC50 (CDK6/CCND1; 25-250 nM, CDK6/CCND, 1 mM ATP, read-out: CDK6/CCND IC50, 25-250 nM): 25 to 250 nM

SMILES: CC(C)S(=N)(=O)c1ccc(Nc2cc3c(C#Cc4cc5c(cc4N)C(C)(C)C(=O)N5)nccc3cn2)cc1 (single isomer, unassigned) [Example 270, 5-amino-3,3-dimethyl-6-((7-((4-(propan-2-ylsulfonimidoyl)phenyl)amino)-2,6-naphthyridin-1-yl)ethynyl)indolin-2-one]
- IC50 (CDK1/CCNB1; [11]): > 250 nM
- IC50 (CDK2/CCNE1; CDK2/CCNE, <25 nM, read-out: CDK2/CCNE IC50 <25 nM): < 25 nM
- IC50 (CDK4/CCND3; CDK4/CCND, 25-250 nM marked x, read-out: CDK4/CCND IC50 25-250 nM): 25 to 250 nM
- IC50 (CDK6/CCND1; [12]): > 250 nM

SMILES: CS(=O)(=O)c1ccc(Nc2cc3c(C4CCC(O)CC4)nccc3cn2)cc1 (racemic) [Ex 215, 4-(7-((4-(methylsulfonyl)phenyl)amino)-2,6-naphthyridin-1-yl)cyclohexan-1-ol]
- IC50 (CDK1/CCNB1; [11]): > 250 nM
- IC50 (CDK2/CCNE1; CDK2/CCNE, 25-250 nM marked x, read-out: CDK2/CCNE IC50 25-250 nM): 25 to 250 nM
- IC50 (CDK4/CCND3; CDK4/CCND, >250 nM marked x, read-out: CDK4/CCND IC50 >250 nM): > 250 nM
- IC50 (CDK6/CCND1; [12]): > 250 nM

SMILES: O=C1Nc2cc(C#Cc3nccc4cnc(Nc5ccc(S(=O)(=O)C6CCC6)cc5)cc34)ccc2C12CCC2 [Ex 387, 6'-((7-((4-(cyclobutylsulfonyl)phenyl)amino)-2,6-naphthyridin-1-yl)ethynyl)spiro[cyclobutane-1,3'-indolin]-2'-one]
- IC50 (CDK1/CCNB1; [13]): 25 to 250 nM
- IC50 (CDK2/CCNE1; [10]): < 25 nM
- IC50 (CDK4/CCND3; [3]): > 250 nM
- IC50 (CDK6/CCND1; [4]): > 250 nM

SMILES: Cc1ccc(C#Cc2nccc3cnc(Nc4ccc(S(C)(=O)=O)cc4)cc23)cc1C#N [Ex 589, 2-methyl-5-((7-((4-(methylsulfonyl)phenyl)amino)-2,6-naphthyridin-1-yl)ethynyl)benzonitrile]
- IC50 (CDK1/CCNB1; [1]): > 250 nM
- IC50 (CDK2/CCNE1; CDK2/CCNE, x = IC50 >250 nM, read-out: CDK2/CCNE IC50 (>250 nM column)): > 250 nM
- IC50 (CDK4/CCND3; [3]): > 250 nM
- IC50 (CDK6/CCND1; [4]): > 250 nM

SMILES: CS(=O)(=O)c1cccc(Nc2cc3c(C#Cc4ccc(C#N)cc4)nccc3cn2)c1 [Ex 942, 4-((7-((3-(methylsulfonyl)phenyl)amino)-2,6-naphthyridin-1-yl)ethynyl)benzonitrile]
- IC50 (CDK1/CCNB1; [5]): > 250 nM
- IC50 (CDK2/CCNE1; [9]): 25 to 250 nM
- IC50 (CDK4/CCND3; [7]): > 250 nM
- IC50 (CDK6/CCND1; [8]): > 250 nM

SMILES: Cc1c(-c2nccc3cnc(Nc4ccc(NS(=O)(=O)c5ccc(C(F)(F)F)nc5)cc4)cc23)ccc2c1cnn2CC(C)(C)O [Ex 778, N-(4-((5-(1-(2-hydroxy-2-methylpropyl)-4-methyl-1H-indazol-5-yl)-2,6-naphthyridin-3-yl)amino)phenyl)-6-(trifluoromethyl)pyridine-3-sulfonamide]
- IC50 (CDK1/CCNB1; [5]): > 250 nM
- IC50 (CDK2/CCNE1; [9]): 25 to 250 nM
- IC50 (CDK4/CCND3; [7]): > 250 nM
- IC50 (CDK6/CCND1; [8]): > 250 nM

SMILES: Cc1c(-c2nccc3cnc(Nc4ccc(S(=O)(=O)Nc5nncn5C)cc4)cc23)ccc2c1cnn2CC(C)(C)O [Ex 855, 4-((5-(1-(2-hydroxy-2-methylpropyl)-4-methyl-1H-indazol-5-yl)-2,6-naphthyridin-3-yl)amino)-N-(4-methyl-4H-1,2,4-triazol-3-yl)benzenesulfonamide]
- IC50 (CDK1/CCNB1; [5]): > 250 nM
- IC50 (CDK2/CCNE1; [9]): 25 to 250 nM
- IC50 (CDK4/CCND3; [7]): > 250 nM
- IC50 (CDK6/CCND1; [8]): > 250 nM

SMILES: CS(=O)(=O)c1ccc(Nc2cc3c(C#Cc4ccc(C#N)c(F)c4)nccc3cn2)cc1 [Ex 650, 2-fluoro-4-((7-((4-(methylsulfonyl)phenyl)amino)-2,6-naphthyridin-1-yl)ethynyl)benzonitrile]
- IC50 (CDK1/CCNB1; [1]): > 250 nM
- IC50 (CDK2/CCNE1; [2]): 25 to 250 nM
- IC50 (CDK4/CCND3; [3]): > 250 nM
- IC50 (CDK6/CCND1; [4]): > 250 nM

SMILES: Cc1cc(C)nc(NS(=O)(=O)c2ccc(Nc3cc4c(C#Cc5cccnc5N)nccc4cn3)cc2)n1 [Example 471, 4-((5-((2-aminopyridin-3-yl)ethynyl)-2,6-naphthyridin-3-yl)amino)-N-(4,6-dimethylpyrimidin-2-yl)benzenesulfonamide]
- IC50 (CDK1/CCNB1; [13]): 25 to 250 nM
- IC50 (CDK2/CCNE1; [10]): < 25 nM
- IC50 (CDK4/CCND3; [3]): > 250 nM
- IC50 (CDK6/CCND1; [4]): > 250 nM

SMILES: N#Cc1ccc(C#Cc2nccc3cnc(Nc4cnc(O)c(N5CCN(CCO)CC5)c4)cc23)cc1 [Ex 920, 4-((7-((6-hydroxy-5-(4-(2-hydroxyethyl)piperazin-1-yl)pyridin-3-yl)amino)-2,6-naphthyridin-1-yl)ethynyl)benzonitrile]
- IC50 (CDK1/CCNB1; [5]): > 250 nM
- IC50 (CDK2/CCNE1; [9]): 25 to 250 nM
- IC50 (CDK4/CCND3; [7]): > 250 nM
- IC50 (CDK6/CCND1; [8]): > 250 nM

SMILES: CS(=O)(=O)c1ccc(Nc2cc3c(C#Cc4cc(CO)cnc4N)nccc3cn2)cc1 [Ex 533, (6-amino-5-((7-((4-(methylsulfonyl)phenyl)amino)-2,6-naphthyridin-1-yl)ethynyl)pyridin-3-yl)methanol]
- IC50 (CDK1/CCNB1; [1]): > 250 nM
- IC50 (CDK2/CCNE1; [2]): 25 to 250 nM
- IC50 (CDK4/CCND3; [3]): > 250 nM
- IC50 (CDK6/CCND1; [4]): > 250 nM
